Experimental data from article PMC7046683 (Frontiers in Oncology, 2020).
Where two headings read alike, the source gives them in different places.

What was measured:
[1] = Blood levels and metabolic ratios of tamoxifen and its metabolites after two tamoxifen injections, with saline or morphine (LC-MS/MS); settings: for Change of blood concentration, second vs first tamoxifen injection: saline co-injections
Protocol: Experiments were performed with 11- to 29-week-old female C57BL/6J mice (23 ± 4 g; Charles River, L'Arbresle, France). Animals were housed according to a 12-h light–dark cycle, at a temperature of 22°C ± 2°C and provided with food and water ad libitum. All procedures were performed in accordance with European directives (2010/63/EU) and were approved by the regional ethics committee and the French Ministry of Agriculture (license no. APAFIS#16827-2018092113192911 v4 to YG).
Statistical analysis was performed using GraphPad Prism 6 Software. […] Groups were compared using multiple t-tests.

[2] = 4OH-tamoxifen glucuronidation assay in liver microsomes, with or without morphine; type: in vitro ADME; settings: male, C57/BL6J, mouse
[3] = read-out: Km for morphine glucuronidation; mice; cited from earlier work
[4] = humans; cited from earlier work
[5] = mice; cited from earlier work
[6] = tamoxifen 10 mg/kg i.p. at 0 and 48 h
[7] = three i.p. injections of morphine 10 mg/kg at 0, 1 and 2 h

CC/C(=C(\c1ccc(OCCN(C)C)cc1)c1ccc(O[C@H]2O[C@@H](C(=O)O)[C@H](O)[C@@H](O)[C@@H]2O)cc1)c1ccccc1 [4OH-tamoxifen-glucuronide]
Change of blood concentration, second vs first tamoxifen injection [1, 6]: significant increase

CC/C(=C(\c1ccc(O)cc1)c1ccc(OCCN(C)C)cc1)c1ccccc1 [4OH-tamoxifen]
Km at 20 s [2]: 68 µM

CN1CC[C@]23c4c5ccc(O[C@@H]6O[C@H](C(=O)O)[C@@H](O)[C@H](O)[C@H]6O)c4O[C@H]2[C@@H](O)C=C[C@H]3[C@H]1C5 [M3G, morphine-3-glucuronide]
Time at which the highest blood concentration was reached [7]: 2 h
Highest concentration in the blood (three i.p. injections of morphine 10 mg/kg at 0, 1 and 2 h, mean ± SEM): 9,773 ± 1,274 pmol/ml

CC/C(=C(\c1ccccc1)c1ccc(OCCNC)cc1)c1ccccc1 [N-desmethyltamoxifen]
Change of blood concentration, second vs first tamoxifen injection [1, 6]: significant increase
Change of blood concentration after tamoxifen + morphine vs first injection of tamoxifen alone ([1]; tamoxifen 10 mg/kg i.p. at 0 and 48 h, morphine 10 mg/kg i.p. at 48, 49 and 50 h): Only a tendency
N-desmethyltamoxifen/tamoxifen ratio after morphine ([1]; tamoxifen + morphine 3 x 10 mg/kg i.p.): not altered
N-desmethyltamoxifen/tamoxifen ratio, second vs first tamoxifen injection ([1]; tamoxifen twice, saline): no difference

CC/C(=C(/c1ccc(OCCNC)cc1)c1ccc(O[C@@H]2O[C@H](C(=O)O)[C@@H](O)[C@H](O)[C@H]2O)cc1)c1ccccc1 [endoxifen-glucuronide]
Change of blood concentration, second vs first tamoxifen injection [1, 6]: did not vary significantly
Increase of endoxifen-glucuronide/endoxifen ratio, second vs first tamoxifen injection ([1]; tamoxifen 10 mg/kg i.p. twice, saline, t = 2 h): 3 fold

CN1CC[C@]23c4c5ccc(O)c4O[C@H]2[C@@H](O)C=C[C@H]3[C@H]1C5 [morphine, reference compound]
Km [3]: 500 µM
Presence in blood after 8 h (three i.p. injections of morphine 10 mg/kg): still present
Time at which the highest blood concentration was reached [7]: 2 h

CC/C(=C(\c1ccccc1)c1ccc(OCCN(C)C)cc1)c1ccccc1 [tamoxifen]
Half-life [4]: 27 h
Half-life [5]: 6.8 h
